Marks after values point to notes of the source that are not given here.
Columns and labels:
[1] = tested on: S. epidermidis ATCC 35984; assay: MIC/MBC microdilution; type: cell-based, Staphylococcus epidermidis
S. epidermidis B374 [2] = assay: MIC/MBC microdilution; type: cell-based, Staphylococcus epidermidis; details: S. epidermidis B374; for Minimal bactericidal concentration (*MBC): 99.9% reduction; for Minimal inhibitory concentration (MIC): 24 h, 37 °C, >90% growth inhibition
S. epidermidis SI8 = assay: MIC/MBC microdilution; type: cell-based, Staphylococcus epidermidis
S. aureus ATCC 6538 = assay: MIC/MBC microdilution; type: cell-based, Staphylococcus aureus; details: S. aureus ATCC 6538; for Minimal bactericidal concentration (*MBC): 99.9% reduction; for Minimal inhibitory concentration (MIC): 24 h, 37 °C, >90% growth inhibition
S. aureus MRSA R98 = assay: MIC/MBC microdilution; type: cell-based, Staphylococcus aureus; details: for Minimal bactericidal concentration (*MBC): 99.9% reduction; for Minimal inhibitory concentration (MIC): 24 h, 37 °C, >90% growth inhibition
E. coli ATCC 11229 = assay: MIC/MBC microdilution; type: cell-based, Escherichia coli; details: E. coli ATCC 11229; for MBC: 99.9% reduction, read-out: Minimal bactericidal concentration (*MBC); for MIC: 24 h, 37 °C, >90% growth inhibition, read-out: Minimal inhibitory concentration (MIC)
E. coli H64 = assay: MIC/MBC microdilution; type: cell-based, Escherichia coli
P. aeruginosa ATCC 27853 = assay: MIC/MBC microdilution; type: cell-based, Pseudomonas aeruginosa
P. aeruginosa PAO1 [3] = assay: MIC/MBC microdilution; type: cell-based, Pseudomonas aeruginosa
[4] = Critical micelle concentration by conductometric measurements; type: physicochemical; details: aqueous solution, 25 °C
Outline: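 Specific conductivity of at least 15 concentrations per cationic surfactant measured at constant 25 °C without temperature compensation, conductometer calibrated with KCl standards. CMC taken as the discontinuity point in the conductivity vs concentration plot.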

[5] = tested on: S. epidermidis ATCC 35984; assay: Adhesion to stainless steel; type: cell-based, Staphylococcus epidermidis; details: 160 µM
S. epidermidis B374 [6] = assay: Adhesion to stainless steel; type: cell-based, Staphylococcus epidermidis; details: Staphylococcus epidermidis, 1280 µM, ranges given over several strains
P. aeruginosa PAO1 [7] = assay: Adhesion to stainless steel; type: cell-based, Pseudomonas aeruginosa
[8] = tested on: S. epidermidis ATCC 35984; assay: Adhesion to polystyrene plate; type: cell-based, Staphylococcus epidermidis; details: concentration not given
Description: (§1) Adhesion analysis to polystyrene surfaces was determined according to the method of Rodrigues et al. with modifications. Polystyrene 96-well plates were incubated with the respective compound concentrations (10–1280 µM) for 4 h at 37 °C with 100 rpm shaking. The plates were then washed with miliQ and inoculated with 100 µL of bacterial suspension (OD = 0.4–0.6). Plates were incubated for 6 h at 37 °C with 100 rpm shaking. Wells were rinsed and fixed for 20 min at 60 °C. They were then […] with 0.1% crystal violet solution for 5 min. The wells were washed with miliQ until the unfixed dye was completely eluted. The absorbance at λ = 590 nm was measured using a reader (Bio-Rad Universal Hood II). The positive control was a surface not treated with QAS. Three independent trials were performed.

S. epidermidis B374 [9] = assay: Adhesion to polystyrene plate; type: cell-based, Staphylococcus epidermidis; details: 160 µM
Description: as §1

P. aeruginosa PAO1 [10] = assay: Adhesion to polystyrene plate; type: cell-based, Pseudomonas aeruginosa; details: concentration not given
Description: as §1

P. aeruginosa PAO1 [11] = assay: Adhesion to glass; type: cell-based, Pseudomonas aeruginosa; details: concentration not given
[12] = tested on: S. epidermidis ATCC 35984 biofilm; assay: Biofilm eradication; type: cell-based, Staphylococcus epidermidis; details: 10 µM, 4 h
Description: (§2) Biofilm eradication assay was performed according to the method of Christensen et al. with modifications. A standardized bacterial (OD = 0.6) suspension of 100 µL was spotted into a 96-well polystyrene plate. They were incubated for 24 h at 37 °C. Cultures were removed, the plate was washed and then concentrations of QAS ([…]) were added, incubated for 4 h at 37 °C with 100 rpm shaking. The wells were washed with miliQ and fixed at 60 °C for 20 min. The wells were […] with 0.1% crystal violet solution for 5 min. The wells were washed with miliQ until the unfixed dye was completely eluted. The absorbance at λ = 590 nm was measured using a reader (Bio-Rad Universal Hood II). The positive control was an untreated biofilm. Three independent test trials were performed.

[13] = tested on: P. aeruginosa PAO1 biofilm; assay: Biofilm eradication; type: cell-based, Pseudomonas aeruginosa; details: 20 µM, 4 h
Description: as §2

[14] = tested on: Salmonella typhimurium TA100; assay: Mutagenicity (Ames test); type: cell-based; details: for Number of colonies: ± SD
Outline: (§3)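 His-deficient TA98 and TA100 strains were plated with test compound on Davis minimal medium and incubated 48 h at 37 °C before revertant colonies were counted. Mutagenicity ratio is revertants with compound over spontaneous revertants (untreated control); MR ≥ 1.7 is read as mutagenic. Three replicate runs.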

[15] = tested on: Salmonella typhimurium TA98; assay: Mutagenicity (Ames test); type: cell-based; details: for Number of colonies: ± SD
Outline: as §3

[16] = tested on: S. epidermidis B374 biofilm; assay: Biofilm eradication; type: cell-based, Staphylococcus epidermidis; details: 160 µM, 4 h
Description: as §2

[17] = tested on: S. epidermidis B374 biofilm; assay: Biofilm-oriented antiseptics test (BOAT); type: cell-based, Staphylococcus epidermidis; details: 640 µM
Description: Colonies were then counted.

[18] = 24 h, 37 °C, >90% growth inhibition

| Compound | Minimal bactericidal concentration (*MBC) (S. epidermidis B374 [2]) | Minimal inhibitory concentration (MIC) (S. epidermidis B374 [2]) | Minimal bactericidal concentration (*MBC) (S. aureus ATCC 6538) | Minimal inhibitory concentration (MIC) (S. aureus ATCC 6538) | Minimal bactericidal concentration (*MBC) (S. aureus MRSA R98) | Minimal inhibitory concentration (MIC) (S. aureus MRSA R98) | MBC (E. coli ATCC 11229) | MIC (E. coli ATCC 11229) | CMC [4] | reduction of adhesion to stainless steel [5] | reduction of adhesion to polystyrene (S. epidermidis B374 [9]) | biofilm eradication [13] | Number of colonies ([14]; ¼ MIC) | Mutagenicity index ([14]; ½ MIC) | Number of colonies ([14]; ½ MIC) | Mutagenicity index ([15]; ¼ MIC) | Number of colonies ([15]; ¼ MIC) | Mutagenicity index ([15]; ½ MIC) | Number of colonies ([15]; ½ MIC) | also measured |
| --- | --- | --- | --- | --- | --- | --- | --- | --- | --- | --- | --- | --- | --- | --- | --- | --- | --- | --- | --- | --- |
| CCCCCCCCCCCCCCCC(=O)N(C)CCC[N+](C)(C)C.[Br-] [BrC16] | 10 *10 µM | 10 *10 µM | 320 *320 µM | 320 *320 µM | 320 *320 µM | 320 *320 µM | 1280 µM | 640 µM | 0.00073 mol/L | 77% | approximately 85% | 50–60% | 151.3 ± 3.5 | 1.06 | 134 ± 1 | 2.76 | 70.5 ± 12 | 1.84 | 47 ± 14.1 | Minimal bactericidal concentration (*MBC) ([1]; 99.9% reduction): 640 *640 µM; Minimal inhibitory concentration (MIC) [1, 18]: 640 *640 µM; Minimal bactericidal concentration (*MBC) (S. epidermidis SI8; 99.9% reduction): 10 *10 µM; Minimal inhibitory concentration (MIC) (S. epidermidis SI8; [18]): 10 *10 µM; Minimal bactericidal concentration (*MBC) (E. coli H64; E. coli H64, 99.9% reduction): 160 *160 µM; Minimal inhibitory concentration (MIC) (E. coli H64; E. coli H64, 24 h, 37 °C, >90% growth inhibition): 160 *160 µM; Minimal bactericidal concentration (*MBC) (P. aeruginosa ATCC 27853; P. aeruginosa ATCC 27853, 99.9% reduction): > 1280 * > 1280 µM; Minimal inhibitory concentration (MIC) (P. aeruginosa ATCC 27853; P. aeruginosa ATCC 27853, 24 h, 37 °C, >90% growth inhibition): > 1280 * > 1280 µM; Minimal bactericidal concentration (*MBC) (P. aeruginosa PAO1 [3]; 99.9% reduction): > 1280 * > 1280 µM; Minimal inhibitory concentration (MIC) (P. aeruginosa PAO1 [3]; [18]): > 1280 * > 1280 µM; inhibition at 1280 µM (S. epidermidis B374 [6]): 17 to 22%; inhibition at 1280 µM (P. aeruginosa PAO1 [7]; Pseudomonas aeruginosa, PAO1, read-out: inhibition of adhesion to stainless steel): 17 to 22%; reduction of adhesion to polystyrene [8]: did not reduce the adhesion; reduction of adhesion to polystyrene (P. aeruginosa PAO1 [10]): did not reduce the adhesion; reduction of adhesion to glass (P. aeruginosa PAO1 [11]): approximately 20%; biofilm destruction [12]: approximately 40%; mutagenicity index (MR) ([14]; base pair substitution type mutations, MR >= 1.7 indicates mutagenic potential): < 1.7; mutagenicity index (MR) ([15]; reading frame shift type mutation, MR >= 1.7 indicates mutagenic potential): above 1.7 |
| CC(=O)[O-].CCCCCCCCCCCCCCCC(=O)N(C)CCC[N+](C)(C)C [AcC16] | 40 *40 µM | 40 *40 µM | 80 *80 µM | 80 *80 µM | 10 *10 µM | 10 *10 µM | 160 µM | 80 µM | 0.0016 mol/L | approximately 93% | approximately 44% | 50–60% | 107.5 ± 2.1 | 0.66 | 132.5 ± 13.4 | 0.93 | 23.7 ± 4.7 | 1.11 | 28.3 ± 6.4 | MBC ([1]; Staphylococcus epidermidis, ATCC35984, 99.9% reduction, read-out: Minimal bactericidal concentration (*MBC)): 640 µM; MIC ([1]; Staphylococcus epidermidis, ATCC35984, 24 h, 37 °C, >90% growth inhibition, read-out: Minimal inhibitory concentration (MIC)): 640 µM; MBC (S. epidermidis SI8; Staphylococcus epidermidis, 99.9% reduction, read-out: Minimal bactericidal concentration (*MBC)): 10 µM; MIC (S. epidermidis SI8; Staphylococcus epidermidis, 24 h, 37 °C, >90% growth inhibition, read-out: Minimal inhibitory concentration (MIC)): 10 µM; MIC (E. coli H64; Escherichia coli, H64, 24 h, E. coli H64, 24 h, 37 °C, >90% growth inhibition, read-out: Minimal inhibitory concentration (MIC)): 160 µM; MBC (E. coli H64; Escherichia coli, H64, E. coli H64, 99.9% reduction, read-out: Minimal bactericidal concentration (*MBC)): 320 µM; MIC (P. aeruginosa ATCC 27853; Pseudomonas aeruginosa, ATCC27853, 24 h, P. aeruginosa ATCC 27853, 24 h, 37 °C, >90% growth inhibition, read-out: Minimal inhibitory concentration (MIC)): > 1280 µM; MBC (P. aeruginosa ATCC 27853; Pseudomonas aeruginosa, ATCC27853, P. aeruginosa ATCC 27853, 99.9% reduction, read-out: Minimal bactericidal concentration (*MBC)): > 1280 µM; MBC (P. aeruginosa PAO1 [3]; Pseudomonas aeruginosa, 99.9% reduction, read-out: Minimal bactericidal concentration (*MBC)): > 1280 µM; MIC (P. aeruginosa PAO1 [3]; Pseudomonas aeruginosa, 24 h, 37 °C, >90% growth inhibition, read-out: Minimal inhibitory concentration (MIC)): > 1280 µM; reduction of adhesion to stainless steel (P. aeruginosa PAO1 [7]; P. aeruginosa PAO1, 160 µM): 58%; biofilm eradication [16]: 70–80%; cell survival in biofilm (BOAT) ([17]; 30 min): 30%; cell survival in biofilm (BOAT) ([17]; 60 min): 9.5%; Mutagenicity index ([14]; ¼ MIC): 0.54 |
